Data as given in patent US10451637B2, “Synthetic blood vessels and uses thereof” (THE UNIVERSITY OF BRITISH COLUMBIA, priority 2017, dated 2019).
Entries after “also recorded” stand apart in the source; their conditions may differ. Values belong to the molecule of their own block, whether it stands above or below them.

Columns and labels:
Aβ40 [1] = assay: Aβ40 transport into luminal circulating medium, bipartite vessels (ELISA); format: cell-based, human; conditions: 1 μM Aβ40, over 4 h, apoE ratio 25:1 antelumen, HDL 200 μg/ml circulating
Description: (§1) Recombinant Aβ40 and Aβ42 peptides (California Peptide) were dissolved in hexafluoroisopropanol (HFIP). The HFIP was removed by evaporation overnight and stocks were stored at −20° C. On the day of the assay, soluble monomers were prepared by reconstituting the peptide film in dimethylsulfoxide (DMSO) to 5 mM, diluted further to […] in Roswell Park Memorial Institute (RPMI) medium without FBS. 100 μl of Aβ solution was injected in the tissue chamber containing 900 μl of DMEM (Gibco) without FBS to the desired concentration using a syringe under flow conditions. For luminal recovery, 100 μl circulating medium was collected at the indicated time.
(§2) Luminal medium was collected from the circulation chamber and 5 mm tissue rings were crushed and lysed in radioimmunoprecipitation assay (RIPA) buffer (10 mM Tris pH 7.4, 150 mM NaCl, 1.0% NP-40, 1.0% sodium deoxycholate, 0.1% SDS and cOmplete protease inhibitor with EDTA (Roche)). Aβ40 (KHB3442, Life Tech) and Aβ42 (KHB3482, Life Tech) were quantified using commercial ELISAs and normalized to total protein concentration, measured by BCA.
(§3) Genetic variation in APOE represents a common genetic risk for AD, with apoE4 considered detrimental and apoE2 protective (Zlokovic, 2013 JAMA Neurol 70(4):440-444). […]

Aβ42 [2] = assay: Aβ42 transport into luminal circulating medium, bipartite vessels (ELISA); format: cell-based, human; conditions: 1 μM Aβ42, over 4 h, apoE ratio 25:1 antelumen, HDL 200 μg/ml circulating
Description: as §1, §2
(§4) Bipartite vessels were prepared as described above. […]

Aβ40 [3] = assay: Aβ40 accumulation in vascular tissue, bipartite vessels (ELISA); format: cell-based, human; conditions: 1 μM Aβ40, 24 h, apoE ratio 25:1, HDL 200 μg/ml
Description: as §1, §2, §3

Aβ42 [4] = assay: Aβ42 accumulation in vascular tissue, bipartite vessels (ELISA); format: cell-based, human; conditions: 1 μM Aβ42, 24 h, apoE ratio 25:1, HDL 200 μg/ml
Description: as §1, §2, §4

glutamate release = assay: Neuronal functionality: glutamate release from quadripartite tissue (HPLC); format: cell-based, human; conditions: 50 nM KCl for 30 min
Description: After 21 days in culture, quadripartite tissue were harvested in Hanks buffered salt solution (HBSS) and cut in half. One half is incubated in HBSS without potassium chloride (KCl) and one half in HBSS with […] KCl. After 30 minutes buffer was collected and run through a GABA/glutamate affinity column on a high pressure liquid chromatography (HPLC) previously calibrated with glutamate standard (0 to 2.5 uM).
The functionality of the neurons was further evaluated by measuring glutamate release in the absence and presence of […] of KCL for 30 min. Glutamate release was then measured by HPLC (FIG. 9A). […] Finally, the secretion of endogenous neuronally-produced Aβ40 and Aβ42 in quadripartite tissue (FIG. 9B) and in circulatory medium (FIG. 9C) as measured by commercial ELISA as above.

NO synthase = assay: NO production by EC in tripartite vessels (conversion of L-3H-arginine to L-3H-citruline); format: cell-based, human; conditions: 1 mM L-NAME with Ach or HDL stimulation
Description: Nitric oxide (NO) synthesis was measured using a commercial nitric oxide synthesis (NOS) activity assay kit (Caymenchemical). Briefly, a 2-3 mm ring of vascular tissue was mechanically ground in 150 μl of ice-cold homogenized buffer (25 mM Tris-Cl, pH7.4, 1 mM EDTA and 1 mM EGTA) and centrifuged 15 min at 4° C. at 10,000 g. The supernatant was aliquoted and incubated in reaction buffer containing 25 mM Tris-Cl, pH7.4, 0.25 mM EDTA, 0.6 mM CaCl2, 1 mM NADP, 200 nM calmodulin, 3 μM tetrahydrobiopterin, 1 μM flavin adenine dinucleotide, 1 μM flavin adenine monoucleotide and 0.2 μCi L-^3H-arginine; PerkinElmer) in the presence of 10 nM acetylcholine (Ach), 0.2 mg/ml HDL or 1 mM L-NG-nitroarginine methyl ester (L-NAME). After 60 min at 37° C., the reaction was stopped by adding 400 μl of stop buffer ([…] HEPES, 5 mM EDTA, pH 5.5). […] Scintillation mix (Ultimate Gold, PerkinElmer) was added to the supernatant and counted using LS6500 β-counter (Beckman Coulter). The percent citrulline formed was calculated as follows: % conversion=(cpm reaction-cpm background)/cpm total*100.
The functionality of EC and astrocytes within tripartite bioengineered vessels was evaluated by measuring nitric oxide (NO) produced by EC and native apoE secreted by astrocytes, which were genotyped as apoE3/apoE3. […]

[5] = test system: native apoE secreted by astrocytes; assay: Astrocyte apoE secretion in tripartite vessels (ELISA); format: cell-based, human; conditions: GW3965 circulated through lumen 72 h
Description: All experiments were conducted under an approved clinical protocol (UBC Clinical Ethics Research Board H14-03357). Upon receipt of written informed consent, 100 ml of fasted blood was collected from normolipidemic healthy donors into vacutainer tubes containing EDTA. Plasma HDL (1.063-1.21 g/ml) was isolated by sequential potassium bromide gradient ultracentrifugation. The purity of the HDL preparations were verified by sodium dodecyl sulfate polyacrylamide gel electrophoresis (SDS-PAGE) followed by Coomassie blue staining to ensure no low-density lipoprotein (LDL) or albumin contamination. Total protein concentration was assessed using the bicinchoninic acid (BCA) assay (Thermofisher Scientific). Recombinant ApoE2 and ApoE4 were commercially purchased and solubilized following the manufacturer's instructions (ABCAM, apoE2 ab55210 and apoE4 ab50243). Secretion of endogenous ApoE from human astrocytes in tripartite vessels was induced by injecting 0.8 μM GW3965 in the circulation medium 72 h prior to addition of Aβ. ApoE concentrations were measured using enzyme linked immunosorbent assay (ELISA) as previously described (Fan et al. 2016 PLoS One. September 6; 11(9):e0162384). […] Fluorescence was read after 15 min at RT on an EnSpire 2300 Multilabel Plate Reader (325Ex/420Em). […]

Aβ40 [6] = assay: Aβ40 transport into luminal circulating medium, tripartite vessels (ELISA); format: cell-based, human; conditions: 1 μM Aβ40, over 4 h, GW3965 0.8 μM 72 h (astrocyte apoE), HDL 200 μg/ml
Description: as §1
(§5) All experiments were conducted under an approved clinical protocol (UBC Clinical Ethics Research Board H14-03357). Upon receipt of written informed consent, 100 ml of fasted blood was collected from normolipidemic healthy donors into vacutainer tubes containing EDTA. Plasma HDL (1.063-1.21 g/ml) was isolated by sequential potassium bromide gradient ultracentrifugation. […] Total protein concentration was assessed using the bicinchoninic acid (BCA) assay (Thermofisher Scientific). […] ApoE concentrations were measured using enzyme linked immunosorbent assay (ELISA) as previously described (Fan et al. 2016 PLoS One. September 6; 11(9):e0162384). […] Fluorescence was read after 15 min at RT on an EnSpire 2300 Multilabel Plate Reader (325Ex/420Em). […]

Aβ42 [7] = assay: Aβ42 transport into luminal circulating medium, tripartite vessels (ELISA); format: cell-based, human; conditions: 1 μM Aβ42, over 4 h, GW3965 0.8 μM 72 h (astrocyte apoE), HDL 200 μg/ml
Description: as §1, §5

Aβ40 [8] = assay: Aβ40 accumulation in vascular tissue, tripartite vessels (ELISA); format: cell-based, human; conditions: after 24 h, relative to baseline tripartite conditions
Description: as §1, §5

Aβ42 [9] = assay: Aβ42 accumulation in vascular tissue, tripartite vessels (ELISA); format: cell-based, human; conditions: after 24 h, relative to baseline tripartite conditions
Description: as §1, §5

endothelial barrier = assay: Endothelial barrier integrity, Evans blue injected into circulation loop; format: in vitro ADME, human; conditions: tripartite and bipartite vessels
Text: The integrity of the endothelial barrier in tripartite vessels was functionally assessed by injecting Evans blue into the circulation loop and compared to bipartite vessels. As expected, Evans blue was excluded in both tripartite and bipartite vessels (FIG. 1A).

Molecule: apoE2: Recombinant ApoE2, commercially purchased (ABCAM ab55210)
- Aβ40 transport (recovery into circulation medium) (Aβ40 [1]): did not alter
- Aβ42 transport (recovery into circulation medium) (Aβ42 [2]): did not alter
- Aβ40 accumulated in tissue (Aβ40 [3]): not significantly affected
- Aβ42 accumulated in tissue (Aβ42 [4]): selectively decreased; also recorded: significantly reduced

Molecule: [Cl-].[K+] [KCl, potassium chloride]
- glutamate release (glutamate release): increased glutamate release

Molecule: COC(=O)[C@@H](N)CCCNC(=N)N[N+](=O)[O-] [L-NAME, L-NG-nitroarginine methyl ester]
- conversion of L-3H-arginine to L-3H-citruline in the presence of L-NAME (NO synthase): the conversion was blocked

Molecule: apoE4: Recombinant ApoE4, commercially purchased (ABCAM ab50243)
- Aβ42 accumulated in tissue (Aβ42 [4]): selectively elevated

Molecule: O=C(O)Cc1cccc(OCCCN(Cc2cccc(C(F)(F)F)c2Cl)CC(c2ccccc2)c2ccccc2)c1 [GW3965]
- secretion of native apoE [5]: significantly stimulated

Molecule: apoE: Native apoE3 secreted from astrocytes in tripartite vessels, stimulated with GW3965 (0.8 μM) for 72 h
- rate of Aβ40 transport (Aβ40 [6]): neither apoE alone nor HDL alone modified the rate
- rate of Aβ42 transport (Aβ42 [7]): neither apoE alone nor HDL alone modified the rate
- accumulation of Aβ40 within tissue (Aβ40 [8]): neither apoE, HDL, nor both apoE and HDL affected accumulation
- accumulation of Aβ42 within tissue (Aβ42 [9]): neither apoE, HDL, nor both apoE and HDL affected accumulation

- Evans blue exclusion (integrity of the endothelial barrier) (endothelial barrier): excluded
Molecule: Cc1cc(-c2ccc(/N=N/c3ccc4c(S(=O)(=O)O)cc(S(=O)(=O)O)c(N)c4c3O)c(C)c2)ccc1/N=N/c1ccc2c(S(=O)(=O)O)cc(S(=O)(=O)O)c(N)c2c1O [Evans blue]
